# pKi: −log10 of the molar value.
# Target: Urease (Glycine max, UniProt Q949H4)
# Assay: Urease Inhibition Assay
# Conditions: pH 7; 37 °C
# Protocol: The inhibition studies of soybean urease were initiated with boric acid and boronic acids (butylboronic acid, 4-bromophenylboronic acid, and phenylboronic acid). Also, heavy metal ions (HgCl2, AgCl, and Cu(CH3COO)2) and sodium salts of mineral acids (NaF, NaCl, NaNO3, and Na2SO4) were investigated for their inhibitory effects. Stock solutions of inhibitors, except for 4-bromophenylboronicacid, were prepared in 0.05 M Tris-acetate buffer, pH 7.0, and were suitably diluted for experiments, whereas a stock solution of 4-bromophenylboronic acid was prepared in absolute ethanol and subsequently diluted in respective buffer. The activity assay was carried out at standard conditions as described earlier in the presence of varying concentrations of inhibitors. The yellow-orange colored solution was measured at 405 nm on a Unicam UV-2 spectrophotometer. The amount of NH3 liberated in the reaction mixture was estimated by calibrating Nessler's reagent with standard NH4Cl solution. One enzyme unit is defined as the amount of urease required to liberate 1 μmol of ammonia per minute under our test conditions (0.1 M urea, 0.05 M Trisacetatebuffer, pH 7.0, 37°C).
# Sequence of Urease (Q949H4 whole entry): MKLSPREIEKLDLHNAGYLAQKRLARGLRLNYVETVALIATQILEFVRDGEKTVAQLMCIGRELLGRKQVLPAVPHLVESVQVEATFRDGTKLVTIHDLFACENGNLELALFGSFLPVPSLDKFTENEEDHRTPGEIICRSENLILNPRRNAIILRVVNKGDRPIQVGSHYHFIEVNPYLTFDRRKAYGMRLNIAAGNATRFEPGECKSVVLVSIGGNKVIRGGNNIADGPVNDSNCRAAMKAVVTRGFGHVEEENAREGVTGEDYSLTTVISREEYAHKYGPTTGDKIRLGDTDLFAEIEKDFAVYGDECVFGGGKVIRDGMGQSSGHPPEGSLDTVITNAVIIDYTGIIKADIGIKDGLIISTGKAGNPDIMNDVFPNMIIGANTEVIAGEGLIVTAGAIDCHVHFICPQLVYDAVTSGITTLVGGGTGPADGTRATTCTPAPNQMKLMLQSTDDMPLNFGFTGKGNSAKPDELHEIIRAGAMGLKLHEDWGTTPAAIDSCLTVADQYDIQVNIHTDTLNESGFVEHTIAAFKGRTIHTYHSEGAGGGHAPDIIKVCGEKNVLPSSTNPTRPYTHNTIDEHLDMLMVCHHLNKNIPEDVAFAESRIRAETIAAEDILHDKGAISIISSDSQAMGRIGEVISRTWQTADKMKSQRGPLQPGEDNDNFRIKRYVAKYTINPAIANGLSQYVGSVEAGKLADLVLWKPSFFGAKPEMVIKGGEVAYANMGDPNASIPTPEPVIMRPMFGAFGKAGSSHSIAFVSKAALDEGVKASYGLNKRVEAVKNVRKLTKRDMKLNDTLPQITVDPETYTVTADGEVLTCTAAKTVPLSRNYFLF
row,pKi,SMILES
1,3.66,OB(O)c1ccc(Br)cc1 [4-bromo phenyl boronic acid]
2,3.70,OB(O)O [Boric acid]
3,2.82,CCCCB(O)O [Borinic acid derivative]
4,2.70,"OB(O)c1ccccc1 [Phenylboronic acid, 22]"

# Reference: BindingDB's records for doi:10.3109/14756360903468155 (Banaras Hindu University, 2010)
